Reference: patent US11643413B2, “9-(2-oxacycloalkyl)-9H-purine-2,6-diamine derivatives and their use for the treatment of skin disorders” (UNIVERZITA PALACKEHO V OLOMOUCI, priority 2017, dated 2023)
pIC50: −log10 of the molar value. Where two headings read alike, the source gives them in different places.

How the values were obtained:
NIH-3T3 [1] = tested on: NIH-3T3
From the text: (§1) One of the parameters used, as the basis for cytotoxicity assays, is the metabolic activity of viable cells. For example, a microtiter assay, which uses the Calcein AM, is now widely used to quantitate cell proliferation and cytotoxicity. […] Because only metabolically active cells cleave Calcein AM, these assays detect viable cells exclusively. The quantity of reduced Calcein AM corresponds to the number of vital cells in the culture.
(§2) Mouse fibroblasts NIH3T3; mouse immortalized bone marrow macrophages B2.4 and B10A.4, and BJ (human foreskin fibroblasts) were used for routine screening of compounds. The cells were maintained in Nunc/Corning 80 cm^2 plastic tissue culture flasks and cultured in cell culture medium (DMEM with 5 g/l glucose, 2 mM glutamine, 100 U/ml penicillin, 100 μg/ml streptomycin, 10% fetal calf serum and sodium bicarbonate).
(§3) The cell suspensions that were prepared and diluted according to the particular cell type and the expected target cell density (2.500-30.000 cells per well based on cell growth characteristics) were added by pipette (80 μl) into 96/well microtiter plates. Inoculates were allowed a pre-incubation period of 24 hours at 37° C. and 5% CO2 for stabilisation. Four-fold dilutions of the intended test concentration were added at time zero in 20 μl aliquots to the microtiter plate wells. Usually, the compound tested was evaluated at six 4-fold dilutions. […] All compound concentrations were examined in duplicates. Incubations of cells with the tested compounds lasted for 72 hours at 37° C., in 5% CO2 atmosphere and 100% humidity. At the end of the incubation period, the cells were assayed by using Calcein AM. Ten microliters of the stock solution were pipetted into each well and incubated for 1 hour. Fluorescence (FD) was measured with the Labsystem FIA Reader Fluoroscan Ascent (UK).

B10A.4 [2] = tested on: B10A.4
From the text: as §1, §2, §3

[3] = tested on: BJ (human foreskin fibroblasts)
From the text: as §1, §2, §3

B10A.4 [4] = tested on: B10A.4; remark: listed apart in the source
From the text: as §1, §2, §3

[5] = tested on: BJ (human foreskin fibroblasts); assay: Calcein AM cytotoxicity, BJ; details: read-out: Cytotoxicity IC50, BJ; 72 hours incubation, Calcein AM; highest concentration […]
From the text: as §1, §2, §3

NIH-3T3 [6] = assay: Calcein AM cytotoxicity, NIH-3T3; details: read-out: Cytotoxicity IC50, NIH-3T3; 72 hours incubation, Calcein AM; highest concentration […]
From the text: as §1, §2, §3

B10A.4 [7] = assay: Calcein AM cytotoxicity, B10A.4 (second column); details: read-out: Cytotoxicity IC50, B10A.4, 72 hours incubation, highest concentration […]
From the text: as §1, §2, §3

B10A.4 [8] = assay: Calcein AM cytotoxicity, B10A.4 (first column); details: read-out: Cytotoxicity IC50, B10A.4; 72 hours incubation, Calcein AM; highest concentration […]
From the text: as §1, §2, §3

NIH3T3 fibroblasts = assay: Peroxidation of membrane lipids, MDA by TBA method; format: cell-based, mouse; details: FW = fresh weight
Protocol: A typical symptom associated with aging is the direct consequence of increased concentrations of reactive oxygen species and lipid peroxidation. […] MDA levels were measured using thiobarbituric acid (TBA method). […] The crude extract was centrifuged at 10,000×g for 5 minutes and 100 μl aliquots of the supernatant were mixed with 100 μl of 0.5% (w/v) TBA containing 0.1% (w/v) trichloroacetic acid. The resulting solution was then incubated for 30 min at 95° C. The samples were rapidly cooled on ice and centrifuged for 5 minutes at 1000×g. […] The newly prepared derivatives of the general formula thus have a protective function against the negative effects of reactive oxygen species that accumulate strongly in the tissues.

[9] = Calcein AM cytotoxicity, BJ; details: human, BJ foreskin fibroblasts
From the text: as §1, §2, §3

[10] = Radical scavenging activity determined by ORAC; details: relative to trolox; Mean ± SD (n = 3)
Protocol: The ability of compounds to scavenge free radicals in vitro was determined by Oxygen Radical Absorbance Capacity (ORAC) method. In brief, fluorescein (100 μl, […]) and 25 μl of compound solution were added into each working well in a 96-well microplate preincubated at 37° C. Thereafter, 25 μL of 250 mM AAPH was quickly added, microplate was shaken for 5 s and the fluorescence (Ex. 485 nm, Em. 510 nm) was read every 3 min over 90 min by using microplate reader Infinite 200 (TECAN, Switzerland). The net area under the curve was used to express antioxidant activity relative to trolox which was used as a standard.

[11] = Calcein AM cytotoxicity, NIH-3T3; details: mouse, NIH-3T3 fibroblasts
From the text: as §1, §2, §3

[12] = Calcein AM cytotoxicity, B10A.4 (first column); details: mouse, B10A.4 immortalized bone marrow macrophages
From the text: as §1, §2, §3

Row | pIC50 (NIH-3T3 [1]) | pIC50 (B10A.4 [2]) | pIC50 [3] | pIC50 (B10A.4 [4]) | SMILES | pIC50 [5] | pIC50 (NIH-3T3 [6]) | pIC50 (B10A.4 [7]) | pIC50 (B10A.4 [8]) | MDA (NIH3T3 fibroblasts) [nmol/g FW] | further results
1 |  |  |  |  | Nc1ncnc2nc[nH]c12 [Adenine, reference compound] |  |  |  |  |  | pIC50 (NIH-3T3 [1]; mouse, 72 h): < 3.78; pIC50 (B10A.4 [2]; mouse, 72 h): < 3.78; pIC50 ([3]; human, 72 h): < 3.78; pIC50 (B10A.4 [4]; mouse, 72 h): < 3.78
2 |  |  |  |  | CC(C)=CCNc1nc(N(C)C)nc2c1ncn2C1CCO1 (stereo not drawn) [Compound 13] | < 3.78 | < 3.78 | < 3.78 | < 3.78 | 13.1 | 
3 |  |  |  |  | CCN(CC)c1nc(NCC=C(C)C)c2ncn(C3CCO3)c2n1 (stereo not drawn) [Compound 14] | < 3.78 | < 3.78 | < 3.78 | < 3.78 | 11.4 | 
4 |  |  |  |  | Cc1ccc(CNc2nc(N(C)C)nc3c2ncn3C2CCCO2)o1 (stereo not drawn) [Compound 46, 2-(Dimethylamino)-6-[(5-methylfurfuryl)amino]-9-(tetrahydrofuran-2-yl)-9H-purine] |  |  |  |  | 11.2 | IC50 at 72 h [9]: > 167 µM; ORAC (compound/trolox) [10]: 0.14 ± 0.004; IC50 at 72 h [11]: > 167 µM; IC50 at 72 h [12]: > 167 µM
5 | < 3.78 | < 3.78 | < 3.78 | < 3.78 | CNc1nc(NCc2occc2OC)c2ncn(C3CCCO3)c2n1 (stereo not drawn) [Compound 49] |  |  |  |  | 12.3 | 
6 |  |  |  |  | CN(C)CCNc1nc(NCc2ccco2)c2ncn(C3CCCCO3)c2n1 (stereo not drawn) [Compound 116, 2-{[2-(Dimethylamino)ethyl]amino}-6-furfurylamino-9-(tetrahydro-2H-pyran-2-yl)-9H-purine] |  |  |  |  | 9.2 | IC50 at 72 h [9]: > 167 µM; ORAC (compound/trolox) [10]: 2.475 ± 0.086; IC50 at 72 h [11]: > 167 µM; IC50 at 72 h [12]: > 167 µM
7 |  |  |  |  | c1coc(CNc2ncnc3nc[nH]c23)c1 [Kinetin, N^6-furfuryladenine, reference compound] | 3.83 | 3.88 | 3.78 | < 3.78 | 14.2 | 
8 | 3.91 | < 3.78 | 3.87 | 3.83 | CC(C)=CCNc1ncnc2nc[nH]c12 [isopentenyladenine, reference compound] |  |  |  |  |  | 
9 | ≤ 3.78 | < 3.78 | 3.78 | ≤ 3.75 | Oc1cccc(CNc2ncnc3nc[nH]c23)c1 [meta-topolin, reference compound] |  |  |  |  |  | 
